Measurements: patent EP4745135A1 (Gluetacs Therapeutics (Shanghai) Co., Ltd., priority 2023, dated 2025)

Tests used:
CK1α = target: T1, CK1α (Homo sapiens, UniProt P48729+Q96SW2); assay: Western blot, degradation of substrate protein in hPBMCs; assay type: cell-based
T1 construct: effects of the compounds of the present disclosure on the expression of target proteins in cells; endogenous in cells; host or cells: human PBMCs (Milecell Biotechnologies)
Protocol: (§1) Conventional Western blot assay was performed to evaluate the effects of the compounds of the present disclosure on the expression of target proteins in cells. • (1) Cell Seeding and Protein Harvesting: Human peripheral blood mononuclear cells (hPBMCs) at a density of 1×10^6 cells/mL were thawed according to the PBMC Recovery Protocol (Milecell Biotechnologies Inc, Shanghai). […] After 24 hours of compounds treatment, cells were harvested and lysed in RIPA protein lysate containing protease inhibitors on ice for 30 min, followed by centrifugation. The supernatant was aspirated as the extracted total cell protein. The protein concentration of the supernatant was determined using the conventional BCA (Bicinchoninic Acid) assay. • (2) To the collected supernatant, 5X SDS sample loading buffer was added, followed by denaturation at 95°C for 5 minutes. The denatured samples were then separated by SDS-PAGE electrophoresis on a polyacrylamide gel, transferred onto a nitrocellulose membrane (0.45 µm NC membrane), blocked with blocking buffer at room temperature for 1 hour, and subjected to antibody incubation and development procedures according to the antibody manufacturer's instructions (Cell Signaling Technology Company).
(§2) Half-Maximal Degradation Concentration value (the drug concentration required for degrading proteins by 50%, abbreviated as DC50) reads method: comparing the grayscale values of Western blot bands from drug-treated samples with those from blank DMSO-treated controls, and identifying the drug concentration range at which the grayscale value is half that of the DMSO-treated control bands.
(§3) DC50 values can be calculated using ImageJ software to measure grayscale values of Western blot bands from drug-treated samples. The concentration-response curve is fitted to estimate the drug concentration corresponding to half the grayscale value.
(§4) Target protein remaining (%) refers to the percentage of target protein remaining in cells after treatment with protein degrader compounds.
(§5) Calculation method for target protein remaining (%): Use ImageJ software to measure grayscale values of Western blot bands from drug (protein degrader)-treated samples. The grayscale value of drug-treated bands is divided by that of internal control protein bands, and the resulting quotient is normalized to obtain the relative percentage of remaining target protein after protein degrader treatment.
(§6) Target protein degradation rate (%) = 1−target protein remaining (%). [formula]

IKZF1 = target: T2, IKZF1 (Homo sapiens, UniProt Q13422+Q96SW2); assay: as above; assay type: cell-based
T2 construct: effects of the compounds of the present disclosure on the expression of target proteins in cells; endogenous in cells; host or cells: human PBMCs (Milecell Biotechnologies)
Protocol: as §1, §2, §3, §4, §5, §6

IKZF2 = target: T3, IKZF2 (Homo sapiens, UniProt Q96SW2+Q9UKS7); assay: as above; assay type: cell-based
T3 construct: effects of the compounds of the present disclosure on the expression of target proteins in cells; endogenous in cells; host or cells: human PBMCs (Milecell Biotechnologies)
Protocol: as §1, §2, §3, §4, §5, §6

IKZF3 = target: T4, IKZF3 (Homo sapiens, UniProt Q96SW2+Q9UKT9); assay: as above; assay type: cell-based
T4 construct: effects of the compounds of the present disclosure on the expression of target proteins in cells; endogenous in cells; host or cells: human PBMCs (Milecell Biotechnologies)
Protocol: as §1, §2, §3, §4, §5, §6

WEE1 = target: T5, WEE1 (Homo sapiens, UniProt P30291+Q96SW2); assay: as above; assay type: cell-based
T5 construct: effects of the compounds of the present disclosure on the expression of target proteins in cells; endogenous in cells; host or cells: human PBMCs (Milecell Biotechnologies)
Protocol: as §1, §2, §3, §4, §5, §6

GSPT1 = assay: as above; assay type: cell-based, Human
[1] = target: T6, human Cereblon WT GST-tagged protein (Homo sapiens, UniProt Q96SW2); assay: CRBN-binding affinity, HTRF (CEREBLON BINDING kit); conditions: for inhibition at 0.5 µM: read-out: Inhibition Rate at 0.5 µM (%); for inhibition at 2 µM: read-out: Inhibition Rate at 2 µM (%)
T6 construct: purchased CISBIO 64BDCRBNPEH

[2] = Western blot, 24 hours of compound treatment, compounds tested at 50 nM and 500 nM (concentration for the table not stated)
[3] = 24 hours treatment, compounds at 50 nM and 500 nM (concentration behind the class not stated)

T2 sequence (Q13422 whole entry): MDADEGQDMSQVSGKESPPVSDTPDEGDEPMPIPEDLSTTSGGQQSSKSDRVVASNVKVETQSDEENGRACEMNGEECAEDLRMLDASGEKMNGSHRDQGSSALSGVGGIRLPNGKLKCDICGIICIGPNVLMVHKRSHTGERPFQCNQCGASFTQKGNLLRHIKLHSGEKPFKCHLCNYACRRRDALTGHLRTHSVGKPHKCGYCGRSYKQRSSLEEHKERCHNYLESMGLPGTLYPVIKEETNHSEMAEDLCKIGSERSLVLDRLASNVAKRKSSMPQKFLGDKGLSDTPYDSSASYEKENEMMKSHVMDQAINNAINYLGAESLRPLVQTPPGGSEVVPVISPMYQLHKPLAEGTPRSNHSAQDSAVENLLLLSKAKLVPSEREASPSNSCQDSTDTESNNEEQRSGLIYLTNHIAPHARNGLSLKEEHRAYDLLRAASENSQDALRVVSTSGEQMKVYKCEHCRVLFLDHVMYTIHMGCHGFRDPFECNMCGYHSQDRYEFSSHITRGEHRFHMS
T2 sequence (Q96SW2 whole entry): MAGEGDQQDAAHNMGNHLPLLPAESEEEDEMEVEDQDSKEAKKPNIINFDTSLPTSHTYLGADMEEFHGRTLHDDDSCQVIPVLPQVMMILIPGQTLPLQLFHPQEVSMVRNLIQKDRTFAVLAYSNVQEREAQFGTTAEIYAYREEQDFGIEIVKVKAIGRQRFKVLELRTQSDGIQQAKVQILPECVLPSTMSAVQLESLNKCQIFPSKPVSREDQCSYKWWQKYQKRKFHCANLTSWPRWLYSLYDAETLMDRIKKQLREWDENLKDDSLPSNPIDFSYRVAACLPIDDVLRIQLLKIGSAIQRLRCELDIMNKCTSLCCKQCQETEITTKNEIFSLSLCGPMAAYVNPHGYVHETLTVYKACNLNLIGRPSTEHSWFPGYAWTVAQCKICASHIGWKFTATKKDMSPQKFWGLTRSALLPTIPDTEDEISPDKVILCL
T2 sequence (Q16531 whole entry partner): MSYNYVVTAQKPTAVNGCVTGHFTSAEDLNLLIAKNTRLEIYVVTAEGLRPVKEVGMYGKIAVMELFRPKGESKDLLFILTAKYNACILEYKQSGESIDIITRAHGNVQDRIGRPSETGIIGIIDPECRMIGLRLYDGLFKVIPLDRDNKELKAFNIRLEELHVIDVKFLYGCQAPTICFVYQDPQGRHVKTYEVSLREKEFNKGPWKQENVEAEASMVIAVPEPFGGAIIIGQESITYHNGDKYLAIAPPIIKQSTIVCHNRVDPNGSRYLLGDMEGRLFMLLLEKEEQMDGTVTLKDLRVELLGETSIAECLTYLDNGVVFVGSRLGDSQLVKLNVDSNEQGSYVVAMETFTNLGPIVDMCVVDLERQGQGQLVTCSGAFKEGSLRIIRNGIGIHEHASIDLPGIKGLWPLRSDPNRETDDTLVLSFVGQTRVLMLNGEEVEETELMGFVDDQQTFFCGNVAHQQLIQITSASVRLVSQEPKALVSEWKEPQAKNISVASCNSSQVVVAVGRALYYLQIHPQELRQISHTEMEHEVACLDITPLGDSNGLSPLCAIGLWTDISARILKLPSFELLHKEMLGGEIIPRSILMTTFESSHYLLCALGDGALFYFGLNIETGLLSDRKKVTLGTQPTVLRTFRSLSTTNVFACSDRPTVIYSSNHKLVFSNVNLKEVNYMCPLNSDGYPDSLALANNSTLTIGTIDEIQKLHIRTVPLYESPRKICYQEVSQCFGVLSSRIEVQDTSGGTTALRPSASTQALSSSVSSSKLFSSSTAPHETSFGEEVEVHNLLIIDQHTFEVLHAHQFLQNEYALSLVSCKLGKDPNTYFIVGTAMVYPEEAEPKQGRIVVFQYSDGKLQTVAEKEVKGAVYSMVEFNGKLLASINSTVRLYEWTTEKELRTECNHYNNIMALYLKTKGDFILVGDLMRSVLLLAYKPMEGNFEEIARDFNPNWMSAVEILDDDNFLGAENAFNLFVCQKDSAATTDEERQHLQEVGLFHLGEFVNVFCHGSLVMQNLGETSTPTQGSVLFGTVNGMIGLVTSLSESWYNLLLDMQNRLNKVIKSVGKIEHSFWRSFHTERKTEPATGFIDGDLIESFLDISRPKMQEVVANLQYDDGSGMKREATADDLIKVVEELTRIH
T1 sequence (P48729 whole entry): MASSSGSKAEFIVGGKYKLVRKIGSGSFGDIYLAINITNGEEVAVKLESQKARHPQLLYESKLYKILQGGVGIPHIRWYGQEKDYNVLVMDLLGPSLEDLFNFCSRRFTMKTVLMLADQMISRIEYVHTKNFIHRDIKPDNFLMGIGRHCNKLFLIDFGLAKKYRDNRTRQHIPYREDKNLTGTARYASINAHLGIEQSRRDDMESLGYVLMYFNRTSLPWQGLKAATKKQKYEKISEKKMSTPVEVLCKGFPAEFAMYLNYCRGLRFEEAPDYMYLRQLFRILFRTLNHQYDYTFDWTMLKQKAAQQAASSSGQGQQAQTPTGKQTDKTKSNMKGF
T1 sequence (Q96SW2 whole entry): as the sequence (Q96SW2 whole entry) above
T1 sequence (Q16531 whole entry partner): as the sequence (Q16531 whole entry partner) above
T3 sequence (Q9UKS7 whole entry): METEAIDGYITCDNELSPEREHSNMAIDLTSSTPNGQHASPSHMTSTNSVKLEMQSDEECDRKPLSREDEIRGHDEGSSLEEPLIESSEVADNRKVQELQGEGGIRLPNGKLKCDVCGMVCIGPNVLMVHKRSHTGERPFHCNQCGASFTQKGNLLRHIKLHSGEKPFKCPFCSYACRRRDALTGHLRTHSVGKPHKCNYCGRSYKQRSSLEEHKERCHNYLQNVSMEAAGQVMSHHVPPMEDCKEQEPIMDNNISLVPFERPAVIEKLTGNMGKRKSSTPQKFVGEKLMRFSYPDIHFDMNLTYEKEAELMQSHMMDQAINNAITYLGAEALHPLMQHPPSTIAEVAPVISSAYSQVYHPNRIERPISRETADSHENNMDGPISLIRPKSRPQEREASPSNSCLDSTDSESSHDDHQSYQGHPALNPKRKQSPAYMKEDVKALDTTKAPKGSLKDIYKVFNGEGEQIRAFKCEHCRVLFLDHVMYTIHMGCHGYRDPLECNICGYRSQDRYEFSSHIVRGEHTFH
T3 sequence (Q96SW2 whole entry): as the sequence (Q96SW2 whole entry) above
T3 sequence (Q16531 whole entry partner): as the sequence (Q16531 whole entry partner) above
T6 sequence (Q96SW2 whole entry): as the sequence (Q96SW2 whole entry) above
T5 sequence (P30291 whole entry): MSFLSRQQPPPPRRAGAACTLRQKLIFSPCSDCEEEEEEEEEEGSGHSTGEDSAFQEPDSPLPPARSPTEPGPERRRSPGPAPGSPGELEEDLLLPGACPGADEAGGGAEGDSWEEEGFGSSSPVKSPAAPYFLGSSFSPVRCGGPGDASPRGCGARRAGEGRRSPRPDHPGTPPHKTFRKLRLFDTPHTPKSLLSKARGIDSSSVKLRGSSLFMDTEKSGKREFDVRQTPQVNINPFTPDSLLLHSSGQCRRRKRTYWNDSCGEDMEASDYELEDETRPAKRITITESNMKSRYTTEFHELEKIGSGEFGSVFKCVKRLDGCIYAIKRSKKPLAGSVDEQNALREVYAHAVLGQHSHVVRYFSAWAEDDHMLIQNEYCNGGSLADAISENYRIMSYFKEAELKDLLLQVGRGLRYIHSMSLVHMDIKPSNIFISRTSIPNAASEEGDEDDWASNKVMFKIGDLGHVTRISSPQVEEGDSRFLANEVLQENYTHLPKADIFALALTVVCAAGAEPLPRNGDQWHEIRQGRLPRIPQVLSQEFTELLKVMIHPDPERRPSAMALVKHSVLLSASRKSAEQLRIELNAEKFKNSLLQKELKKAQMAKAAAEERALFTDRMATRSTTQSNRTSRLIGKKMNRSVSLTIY
T5 sequence (Q96SW2 whole entry): as the sequence (Q96SW2 whole entry) above
T5 sequence (Q16531 whole entry partner): as the sequence (Q16531 whole entry partner) above
T4 sequence (Q9UKT9 whole entry): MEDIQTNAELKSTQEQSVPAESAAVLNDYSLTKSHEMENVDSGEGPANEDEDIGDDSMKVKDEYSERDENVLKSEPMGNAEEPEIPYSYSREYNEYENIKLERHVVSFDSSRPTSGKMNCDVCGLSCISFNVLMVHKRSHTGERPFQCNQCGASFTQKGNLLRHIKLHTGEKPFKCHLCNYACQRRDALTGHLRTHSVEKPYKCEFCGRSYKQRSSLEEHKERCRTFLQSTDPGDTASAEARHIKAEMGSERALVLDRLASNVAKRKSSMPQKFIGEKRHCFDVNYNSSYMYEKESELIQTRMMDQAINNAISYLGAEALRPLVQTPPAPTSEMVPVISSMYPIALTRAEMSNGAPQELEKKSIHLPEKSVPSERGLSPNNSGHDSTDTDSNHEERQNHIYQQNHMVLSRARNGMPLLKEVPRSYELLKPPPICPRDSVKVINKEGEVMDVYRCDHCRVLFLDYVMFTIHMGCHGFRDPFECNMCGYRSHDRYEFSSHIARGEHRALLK
T4 sequence (Q96SW2 whole entry): as the sequence (Q96SW2 whole entry) above
T4 sequence (Q16531 whole entry partner): as the sequence (Q16531 whole entry partner) above

SMILES	CK1α substrate protein remaining % (CK1α; [2])	IKZF 1 substrate protein remaining % (IKZF1; [2])	IKZF2 substrate protein remaining % (IKZF2; [2])	IKZF3 substrate protein remaining % (IKZF3; [2])	Wee1 substrate protein remaining % (WEE1; [2])	GSPT1 substrate protein remaining % (GSPT1; [2])	IC50 ([1]; CRBN binding, HTRF, 3 hours at room temperature, read-out: HTRF IC50) [nM]	CK1α substrate protein remaining % (CK1α; [3])	IKZF 1 substrate protein remaining % (IKZF1; [3])	IKZF2 substrate protein remaining % (IKZF2; [3])	IKZF3 substrate protein remaining % (IKZF3; [3])	Wee1 substrate protein remaining % (WEE1; [3])	GSPT1 substrate protein remaining % (GSPT1; [3])	inhibition at 0.5 µM [1] [%]	inhibition at 2 µM [1] [%]
O=C1CCC(N2Cc3ccc(CN4CCN(c5cccc6sccc56)CC4)cc3C2=S)C(=O)N1 (centres unmarked) [GT-05035, 3-(6-((4-(benzo[b]thiophen-4-yl)piperazin-1-yl)methyl)-1-thioxoisoindolin-2-yl)piperidine-2,6-dione]	B (80%< substrate protein remaining %≤ 100%)	A (0% ≤ substrate protein remaining % ≤ 80%)	A (0% ≤ substrate protein remaining % ≤ 80%)	A (0% ≤ substrate protein remaining % ≤ 80%)	A (0% ≤ substrate protein remaining % ≤ 80%)	A (0% ≤ substrate protein remaining % ≤ 80%)	100 to 500	–	–	–	–	–	–	–	–
Cc1ccc(N2CCN(Cc3cccc4c3CN(C3CCC(=O)NC3=O)C4=S)CC2)s1 (centres unmarked) [GT-08305, 3-(4-((4-(5-methylthiophen-2-yl)piperazin-1-yl)methyl)-1-thioxoisoindolin-2-yl)piperidine-2,6-dione]	–	–	–	–	–	–	–	B (80%< substrate protein remaining %≤ 100%)	B (80%< substrate protein remaining %≤ 100%)	A (0% ≤ substrate protein remaining % ≤ 80%)	B (80%< substrate protein remaining %≤ 100%)	B (80%< substrate protein remaining %≤ 100%)	B (80%< substrate protein remaining %≤ 100%)	60 to 80	80 to 100
O=C1CCC(N2Cc3cc(CN4CCN(c5cccc(F)n5)CC4)ccc3C2=S)C(=O)N1 (centres unmarked) [GT-09221, 3-(5-((4-(6-fluoropyridin-2-yl)piperazin-1-yl)methyl)-1-thioxoisoindolin-2-yl)piperidine-2,6-dione]	B (80%< substrate protein remaining %≤ 100%)	A (0% ≤ substrate protein remaining % ≤ 80%)	B (80%< substrate protein remaining %≤ 100%)	B (80%< substrate protein remaining %≤ 100%)	A (0% ≤ substrate protein remaining % ≤ 80%)	B (80%< substrate protein remaining %≤ 100%)	–	–	–	–	–	–	–	80 to 100	80 to 100
O=C1CCC(N2Cc3c(CN4CCN(c5nsc6ccccc56)CC4)cccc3C2=S)C(=O)N1 (centres unmarked) [GT-08366, 3-(4-((4-(benzo[d]isothiazol-3-yl)piperazin-1-yl)methyl)-1-thioxoisoindolin-2-yl)piperidine-2,6-dione]	B (80%< substrate protein remaining %≤ 100%)	B (80%< substrate protein remaining %≤ 100%)	B (80%< substrate protein remaining %≤ 100%)	B (80%< substrate protein remaining %≤ 100%)	A (0% ≤ substrate protein remaining % ≤ 80%)	B (80%< substrate protein remaining %≤ 100%)	–	–	–	–	–	–	–	60 to 80	80 to 100
O=C1CCC(N2Cc3c(CN4CCN(c5nccc(Cl)c5Br)CC4)cccc3C2=S)C(=O)N1 (centres unmarked) [GT-08804, 3-(4-((4-(3-bromo-4-chloropyridin-2-yl)piperazin-1-yl)methyl)-1-thioxoisoindolin-2-yl)piperidine-2,6-dione]	B (80%< substrate protein remaining %≤ 100%)	B (80%< substrate protein remaining %≤ 100%)	B (80%< substrate protein remaining %≤ 100%)	B (80%< substrate protein remaining %≤ 100%)	A (0% ≤ substrate protein remaining % ≤ 80%)	B (80%< substrate protein remaining %≤ 100%)	–	–	–	–	–	–	–	40 to 53	60 to 80
O=C1CCC(N2Cc3c(CN4CCC(c5ccoc5)CC4)cccc3C2=S)C(=O)N1 (centres unmarked) [GT-08317, 3-(4-((4-(furan-3-yl)piperidin-1-yl)methyl)-1-thioxoisoindolin-2-yl)piperidine-2,6-dione]	–	–	–	–	–	–	–	B (80%< substrate protein remaining %≤ 100%)	B (80%< substrate protein remaining %≤ 100%)	A (0% ≤ substrate protein remaining % ≤ 80%)	A (0% ≤ substrate protein remaining % ≤ 80%)	A (0% ≤ substrate protein remaining % ≤ 80%)	B (80%< substrate protein remaining %≤ 100%)	40 to 53	60 to 80
O=C1CCC(N2Cc3cc(CN4CCN(c5ccc(F)cn5)CC4)ccc3C2=S)C(=O)N1 (centres unmarked) [GT-09222, 3-(5-((4-(5-fluoropyridin-2-yl)piperazin-1-yl)methyl)-1-thioxoisoindolin-2-yl)piperidine-2,6-dione]	B (80%< substrate protein remaining %≤ 100%)	A (0% ≤ substrate protein remaining % ≤ 80%)	B (80%< substrate protein remaining %≤ 100%)	B (80%< substrate protein remaining %≤ 100%)	A (0% ≤ substrate protein remaining % ≤ 80%)	B (80%< substrate protein remaining %≤ 100%)	–	–	–	–	–	–	–	60 to 80	80 to 100
O=C1CCC(N2Cc3cc(CN4CCN(c5c(Cl)ccnc5Cl)CC4)ccc3C2=S)C(=O)N1 (centres unmarked) [GT-09232, 3-(5-((4-(2,4-dichloropyridin-3-yl)piperazin-1-yl)methyl)-1-thioxoisoindolin-2-yl)piperidine-2,6-dione]	A (0% ≤ substrate protein remaining % ≤ 80%)	A (0% ≤ substrate protein remaining % ≤ 80%)	A (0% ≤ substrate protein remaining % ≤ 80%)	A (0% ≤ substrate protein remaining % ≤ 80%)	A (0% ≤ substrate protein remaining % ≤ 80%)	A (0% ≤ substrate protein remaining % ≤ 80%)	–	–	–	–	–	–	–	60 to 80	80 to 100
O=C1CCC(N2Cc3cc(CN4CC=C(c5ncnc6scc(-c7ccccc7)c56)CC4)ccc3C2=S)C(=O)N1 (centres unmarked) [GT-09320, 3-(5-((4-(5-phenylthieno[2,3-d]pyrimidin-4-yl)-3,6-dihydropyridin-1(2H)-yl)methyl)-1-thioxoisoindolin-2-yl)piperidine-2,6-dione]	–	–	–	–	–	–	–	B (80%< substrate protein remaining %≤ 100%)	B (80%< substrate protein remaining %≤ 100%)	B (80%< substrate protein remaining %≤ 100%)	B (80%< substrate protein remaining %≤ 100%)	A (0% ≤ substrate protein remaining % ≤ 80%)	A (0% ≤ substrate protein remaining % ≤ 80%)	60 to 80	80 to 100
